Laboratory results: patent US9617244B2, “Antibacterial quinoline derivatives” (JANSSEN PHARMACEUTICA NV, priority 2012, dated 2017)
Values after ≈ are worked out from the molar mass of the structure shown. Counter-ions that a name gives are not always drawn.

What was measured:
[1] = test system: Mycobacterium smegmatis (ATCC607); assay: In-vitro anti-bacterial activity against strain M. Smegmatis ATCC607; format: cell-based; conditions: 90% inhibitory concentration for bacterial growth, Alamar Blue fluorescence; for IC90 MSM 607: 48 hours; for IC90: Mycolicibacterium smegmatis, ATCC607, 48 h, read-out: IC90 MSM 607
Procedure, shortened: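 Serial five-fold compound dilutions in BSA-supplemented wells, inoculated with ~250 CFU/well in Mueller-Hinton broth, incubated 48 h at 37 °C, 5% CO2. Growth read by Alamar Blue fluorescence (ex 530/em 590 nm); IC90 in μg/ml.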

[2] = test system: Staphylococcus aureus (ATCC29213); assay: In-vitro anti-bacterial activity, microtitre plate assay, IC90 determination (non-mycobacterial strains); format: cell-based; conditions: 90% inhibitory concentration for bacterial growth, resazurin fluorescence; for IC90 STA B29213: 24 hours; for IC90: Staphylococcus aureus, ATCC29213, 24 h, read-out: IC90 STA B29213
Procedure, shortened: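 Inoculum of about 100 TCID50 (10–60 CFU/well) in Mueller-Hinton broth, serial five-fold compound dilutions, 24 h at 37 °C in air. Growth read by resazurin fluorescence (ex 530/em 590 nm); IC90 in μg/ml as 90% growth inhibition.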

SMILES	melting point [°C]	IC90 MSM 607 [1] [mg/L]	IC90 STA B29213 [2] [mg/L]	other results
COc1nc2ccc(Br)cc2cc1C(c1cccc(Cl)c1)C1(O)CCNC(Cc2ccccc2)C1 (stereo not shown) (as salt: fumarate) [Compound 35]	145			
COc1nc2ccc(F)cc2cc1C(c1ccc(Cl)cc1)C1(O)CCNC(Cc2ccccc2)C1 (stereo not shown) (as salt: fumarate) [Compound 54]	209			
COc1nc2ccc(Br)cc2cc1C(c1ccc(Cl)cc1)C1(O)CCNC(Cc2ccccc2)C1 (stereo not shown) (as salt: fumarate) [Compound 77]	155			
CSc1nc2ccc(Br)cc2cc1C(c1ccc(Cl)cc1)C1(O)CCNC(Cc2ccccc2)C1 (stereo not shown) (as salt: fumarate) [Compound 88]	194			
COc1nc2ccc(Cl)cc2cc1C(c1ccc(Cl)cc1)C1(O)CCNC(Cc2ccccc2)C1 (stereo not shown) (as salt: fumarate) [Compound 94]	168			
COc1nc2ccc(Br)cc2cc1C(c1ccc(Cl)cc1)C1(O)CCNC(Cc2ccc(F)c(F)c2)C1 (stereo not shown) (as salt: fumarate) [Compound 113]	130			
CS(=O)(=O)c1ccc2[nH]c(=O)c(C(c3ccc(Cl)cc3)C3(O)CCNC(Cc4ccccc4)C3)cc2c1 (stereo not shown) (as salt: fumarate) [Compound 119]	215			
COc1nc2ccccc2cc1C(c1ccc(Cl)cc1)C1(O)CCNC(Cc2ccc(F)c(F)c2)C1 (stereo not shown) (as salt: fumarate) [Compound 139]	130			
COc1nc2ccc(Br)cc2cc1C(c1cccc(Cl)c1)C1(O)CCNC(c2ccc(F)cc2C)C1 (stereo not shown) (as salt: fumarate) [Compound 149]	178			
COc1nc2ccc(Br)cc2cc1C(c1cccc(Cl)c1)C1(O)CCNC(c2ccc(F)cc2C)C1 (stereo not shown) (as salt: fumarate) [Compound 151]	156			
COc1nc2ccc(Br)cc2cc1C(c1cccc(Cl)c1)C1(O)CCNC(c2ccc(F)cc2C)C1 (stereo not shown) (as salt: fumarate) [Compound 152]	170			
COc1nc2ccc(SC)cc2cc1C(c1cccc(Cl)c1)C1(O)CCNC(c2ccc(F)cc2C)C1 (stereo not shown) (as salt: fumarate) [Compound 164]	170			
COc1nc2ccc(SC)cc2cc1C(c1cccc(Cl)c1)C1(O)CCNC(c2ccc(F)cc2C)C1 (stereo not shown) (as salt: fumarate) [Compound 165]	168			
COc1nc2ccc(SC)cc2cc1C(c1ccccc1)C1(O)CCNC(c2ccc(F)cc2C)C1 (stereo not shown) (as salt: fumarate) [Compound 170]	176			
COc1nc2ccc(S(C)(=O)=O)cc2cc1C(c1ccc(Cl)cc1)C1(O)CCNC(c2ccc(F)cc2C)C1 (stereo not shown) (as salt: fumarate) [Compound 201]	195			
CS(=O)(=O)c1ccc2[nH]c(=O)c(C(c3ccc(Cl)cc3)C3(O)CCNC(Cc4ccc(F)c(F)c4)C3)cc2c1 (stereo not shown) (as salt: fumarate) [Compound 214]	213			
COc1nc2ccc(SC)cc2cc1C(c1ccc(Cl)cc1)C1(O)CCNCC1Cc1cccc(F)c1 (stereo not shown) (as salt: fumarate) [Compound 284]	163			
COc1nc2ccc(SC)cc2cc1C(c1ccc(Cl)cc1)C1(O)CCNCC1Cc1cccc(F)c1 (stereo not shown) (as salt: fumarate) [Compound 286]	177			

SMILES	melting point [°C]	IC90 MSM 607 [1] [mg/L]	IC90 STA B29213 [2] [mg/L]	other results
COc1nc2ccc(Cl)cc2cc1C(c1ccc(Cl)cc1)C1(O)CCNCC1c1ccccc1 (stereo not shown) [Compound 410]		7.73 (≈ 15.7 µM)	12.25 (≈ 24.8 µM)	
COc1nc2ccc(Cl)cc2cc1C(c1ccc(Cl)cc1)C1(O)CCNCC1c1ccccc1 (stereo not shown) [Compound 411]		6.50 (≈ 13.2 µM)	4.10 (≈ 8.31 µM)	
COc1nc2ccccc2cc1C(c1ccccc1)C1(O)CCNC(c2ccccc2)C1 (stereo not shown) [Compound 413]				IC90 [1]: 18.2 mg/L (≈ 43 µM); IC90 [2]: 18.2 mg/L (≈ 43 µM)
COc1nc2ccccc2cc1C(c1ccccc1)C1(O)CCNC(c2ccccc2)C1 (stereo not shown) [Compound 415]		>15.47	15.47 (≈ 36.4 µM)	
COc1nc2ccc(Cl)cc2cc1C(c1ccc(Cl)cc1)C1(O)CCNCC1C (stereo not shown) [Compound 421]		5.43 (≈ 12.6 µM)	5.43 (≈ 12.6 µM)	
COc1nc2ccc(Cl)cc2cc1C(c1ccc(Cl)cc1)C1(O)CCNCC1C (stereo not shown) [Compound 422]		8.61 (≈ 20 µM)	7.67 (≈ 17.8 µM)	
COc1nc2ccc(Br)cc2cc1C(c1cccnc1)C1(O)CCNC(Cc2ccccc2)C1 (stereo not shown) [Compound 427]				IC90 [1]: > 16.1 mg/L; IC90 [2]: > 16.1 mg/L
COc1nc2ccc(Br)cc2cc1C(c1cccnc1)C1(O)CCNC(Cc2ccccc2)C1 (stereo not shown) [Compound 428]		10.66 (≈ 20.6 µM)	15.06 (≈ 29 µM)	
COc1nc2ccc(Br)cc2cc1C(n1cccn1)C1(O)CCNC(Cc2ccccc2)C1 (stereo not shown) [Compound 429]				IC90 [1]: 3.87 mg/L (≈ 7.63 µM); IC90 [2]: 7.72 mg/L (≈ 15.2 µM)
COc1nc2ccc(Cl)cc2cc1C(c1ccc(Cl)cc1)C1(O)CCNC(c2ccc3ccccc3c2)C1 (stereo not shown) [Compound 431]		7.66 (≈ 14.1 µM)	8.60 (≈ 15.8 µM)	
COc1nc2ccc(Cl)cc2cc1C(c1ccc(Cl)cc1)C1(O)CCNC(c2ccc3ccccc3c2)C1 (stereo not shown) [Compound 432]		5.24 (≈ 9.64 µM)	7.41 (≈ 13.6 µM)	
COc1nc2ccc(Cl)cc2cc1C(c1ccc(Cl)cc1)C1(O)CCNC(c2ccc3ccccc3c2)C1 (stereo not shown) [Compound 442]		3.60 (≈ 6.62 µM)	11.37 (≈ 20.9 µM)	
O=c1[nH]c2ccc(Cl)cc2cc1C(c1ccc(Cl)cc1)C1(O)CCNCC1F (stereo not shown) [Compound 457]				IC90 [1]: 5.76 mg/L (≈ 13.7 µM); IC90 [2]: 11.5 mg/L (≈ 27.3 µM)
O=c1[nH]c2ccc(Cl)cc2cc1C(c1ccc(Cl)cc1)C1(O)CCNCC1F (stereo not shown) [Compound 458]		11.50 (≈ 27.3 µM)	11.50 (≈ 27.3 µM)	
COc1nc2ccc(Cl)cc2cc1C(c1ccc(Cl)cc1)C1(O)CCNC(Cc2cccnc2)C1 (stereo not shown) [Compound 468]		3.21 (≈ 6.31 µM)	3.21 (≈ 6.31 µM)	
COc1nc2ccc(Cl)cc2cc1C(c1ccc(Cl)cc1)C1(O)CCNC(CNc2cccnc2)C1 (stereo not shown) [Compound 469]				IC90 [1]: 4.16 mg/L (≈ 7.95 µM); IC90 [2]: 8.3 mg/L (≈ 15.9 µM)
COc1nc2ccc(Cl)cc2cc1C(c1ccc(Cl)cc1)C1(O)CCNC(c2cccnc2)C1 (stereo not shown) [Compound 471]				IC90 [1]: 2.91 mg/L (≈ 5.89 µM); IC90 [2]: 4.94 mg/L (≈ 9.99 µM)

More lines, main results first:

melting point [°C]	IC90 MSM 607 [1] [mg/L]	IC90 STA B29213 [2] [mg/L]	SMILES	other results
120			COc1nc2ccc(F)cc2cc1C(c1ccc(Cl)cc1)C1(O)CCNC(Cc2ccccc2)C1 (stereo not shown) (as salt: fumarate) [Compound 55]	
141			CCCN(C)CC1CC(O)(C(c2ccc(Cl)cc2)c2cc3cc(Cl)ccc3nc2OC)CCN1 (stereo not shown) (as salt: fumarate) [Compound 64]	
148			COc1nc2ccc(Br)cc2cc1C(c1ccc(Cl)cc1)C1(O)CCN(Cc2ccccc2)C(Cc2ccccc2)C1 (stereo not shown) (as salt: fumarate) [Compound 76]	
140			COc1nc2ccc(SC)cc2cc1C(c1ccc(Cl)cc1)C1(O)CCNC(Cc2ccccc2)C1 (stereo not shown) (as salt: fumarate) [Compound 90]	
> 250			COc1nc2ccc(SC)cc2cc1C(c1ccc(Cl)cc1)C1(O)CCNC(Cc2ccccc2)C1 (stereo not shown) (as salt: fumarate) [Compound 93]	
155			COc1nc2ccc(SC)cc2cc1C(c1ccccc1)C1(O)CCNC(Cc2ccccc2)C1 (stereo not shown) (as salt: fumarate) [Compound 141]	
184			COc1nc2ccc(Br)cc2cc1C(c1cccc(Cl)c1)C1(O)CCNC(c2ccc(F)cc2C)C1 (stereo not shown) (as salt: fumarate) [Compound 150]	
	2.02 (≈ 4.09 µM)	4.02 (≈ 8.15 µM)	COc1nc2ccc(Cl)cc2cc1C(c1ccc(Cl)cc1)C1(O)CCNCC1c1ccccc1 (stereo not shown) [Compound 412]	
	18.39 (≈ 43.3 µM)	18.39 (≈ 43.3 µM)	COc1nc2ccccc2cc1C(c1ccccc1)C1(O)CCNC(c2ccccc2)C1 (stereo not shown) [Compound 414]	
	9.25 (≈ 20.3 µM)	9.25 (≈ 20.3 µM)	COc1nc2ccccc2cc1C(c1ccccc1)C1(O)CCNC(c2ccc(F)cc2C)C1 (stereo not shown) [Compound 416]	
	17.67 (≈ 32 µM)	>17.6721	COc1nc2ccc(F)cc2cc1C(c1ccc(S(C)(=O)=O)cc1)C1(O)CCNC(c2ccc(F)cc2C)C1 (stereo not shown) [Compound 418]	
	5.43 (≈ 12.6 µM)		COc1nc2ccc(Cl)cc2cc1C(c1ccc(Cl)cc1)C1(O)CCNCC1C (stereo not shown) [Compound 420]	IC90 [2]: 5.43 mg/L (≈ 12.6 µM)
	3.39 (≈ 6.24 µM)	3.39 (≈ 6.24 µM)	COc1nc2ccc(Cl)cc2cc1C(c1ccc(Cl)cc1)C1(O)CCNC(c2ccc3ccccc3c2)C1 (stereo not shown) [Compound 430]	
	3.08 (≈ 5.88 µM)	5.23 (≈ 9.99 µM)	COc1nc2ccc(Cl)cc2cc1C(c1ccc(Cl)cc1)C1(O)CCNC(CNc2cccnc2)C1 (stereo not shown) [Compound 470]	
